{
  "source": "paper PMC8329300",
  "about": "“X-ray crystallography reveals molecular recognition mechanism for sugar binding in a melibiose transporter MelB” (Communications Biology, 2021)",
  "key": {"WT MelBSt [1]": {"target": "T1, WT MelBSt (Salmonella typhimurium, UniProt P30878)", "T1 construct": "Cys scanning mutagenesis for the full-length MelBSt; His10 (C); made in house; host or cells: E. coli DW2", "assay": "biochemical", "assay_type": "binding", "details": "for effect on Trp→D2G FRET of D2G-bound protein (displacement): added to D2G-bound WT MelBSt; for IC50: IC50 of galactoside displacement on bound D2G, DDMB, 10 μM D2G, value could be over-estimated", "experimental": "(§1) Fig. 1 Functional characterizations. a [^3H] Melibiose transport time course with intact cells. […] Inset, melibiose fermentation assay. Transformants with DW2 strain were plated on MacConkey agar plates containing 30 mM melibiose as the sole carbohydrate source and pH sensor neutral red, and incubated at 37 °C for 16–18 h before imaging. Number of tests = 3, from different batch of cells or duplicate measurements from same batch of sample. b Ligand binding by Trp→dansyl galactoside (D^2G) FRET assay. Purified proteins at 1 μM concentration in 20 mM Tris-HCl, pH 7.5, 100 mM CholCl, 10% glycerol, and 0.03% UDM were subjected to steady-state fluorescence measurements as described in Methods. On the time-trace, 1.8 μL of 1 mM D^2G at 10 μM was added into 180 μL of protein solutions at 1-min point, followed by supplying 10 μL of 5 mM DDMB or 5 mM α-NPG to displace the bound D^2G. For testing Na^+ or Li^+ binding, they are added into the solution before displacement with the second sugar. The structure of DDMB or α-NPG is shown in a chair form, and the carbon positions are labeled. Glycosidic bonds are indicated by arrows. Both are α-galactosides containing a substituent at the anomeric carbon-1. The data were from duplicate measurements.\n(§2) Steady-state fluorescence measurements were performed with an AMINCO-Bowman series 2 spectrometer with purified MelBSt at 1 μM in 20 mM Tris-HCl, pH 7.5, 100 mM CholCl, 10% glycerol, 0.03% UDM. Using an excitation wavelength at 290 nm, the emission intensity was recorded at 490 nm. On a time-trace, D^2G, NaCl or LiCl, then DDMB or α-NPG, were sequentially added into the protein solutions at a 1 min-interval. […] An identical volume of water was used for the control. The decrease in intensity after each addition of DDMB or α-NPG was corrected by the dilution effect and plotted as a function of the accumulated α-NPG concentrations or estimated DDMB concentrations. The 50% inhibitory concentration (IC50) was determined by fitting a hyperbolic function to the data (OriginPro 2020b). The final concentration of each detergent is estimated to be 234 μM, which is less than their CMC value for (DDMB, 295 μM).\n(§3) Supplementary Figure 2. Determination of DDMB binding affinity to MelBSt. (a) Titration with DDMB or a-NPG. MelBSt in 20 mM Tris-HCl, pH 7.5, 100 mM CholCl, 10% glycerol, 0.03% UDM without (1) or with 100 mM NaCl (2) were added with D2G at 10 μM at 1-min time point as indicated by triangle symbols on the Trp®dansyl FRET time trace. Starting at the 2-min of time point, DDMB or a-NPG solution was supplemented consecutively at a 1-min interval into MelBSt solution till no change in fluorescence intensity reached as indicated in star symbols. DDM and UDM were used as negative controls. 1% DDM or UDM was titrated into the mixture, The […]\n(§4) At 2-min time point, additions of galactosides were colored in pink, a-NPG in yellow, UDM in blue, DDM in light blue, water in gray traces, respectively. (b) IC50 determination. The intensity decrease at each titration were corrected by the dilution effect, and plotted as a function of the accumulated DDMB or α-NPG concentration. The 50% inhibitory concentration (IC50) was determined by fitting the data to a hyperbolic function (OriginPro 2020b). Results are presented in […]\n(§5) (1 picture or pasted object on this page, not shown here)"}, "D59C MelBSt [2]": {"target": "T2, D59C MelBSt (Salmonella typhimurium, UniProt P30878, D59C)", "T2 construct": "Cys scanning mutagenesis for the full-length MelBSt; His10 (C); made in house; host or cells: E. coli DW2", "T2 sequence (P30878 whole entry D59C)": "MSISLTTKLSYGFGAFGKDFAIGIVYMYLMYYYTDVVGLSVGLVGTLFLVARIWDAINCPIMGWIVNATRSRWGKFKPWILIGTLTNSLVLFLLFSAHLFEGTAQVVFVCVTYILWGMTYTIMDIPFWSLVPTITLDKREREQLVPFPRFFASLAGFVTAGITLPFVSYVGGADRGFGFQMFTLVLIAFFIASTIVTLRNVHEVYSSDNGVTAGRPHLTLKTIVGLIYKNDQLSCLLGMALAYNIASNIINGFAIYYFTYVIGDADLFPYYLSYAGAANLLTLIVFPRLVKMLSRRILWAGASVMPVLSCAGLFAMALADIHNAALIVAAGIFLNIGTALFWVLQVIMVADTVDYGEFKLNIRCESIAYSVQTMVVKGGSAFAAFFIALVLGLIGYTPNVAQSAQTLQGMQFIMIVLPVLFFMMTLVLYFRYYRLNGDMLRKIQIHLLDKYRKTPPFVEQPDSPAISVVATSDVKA", "assay": "Trp→dansyl galactoside (D2G) FRET time trace and IC50 of D2G displacement (D59C)", "assay_type": "binding", "details": "IC50 of galactoside displacement on bound D2G, DDMB, 10 μM D2G, value could be over-estimated", "experimental": "as §1, §2, §3, §4, §5"}, "D59A MelBSt": {"target": "T3, D59A MelBSt (Salmonella typhimurium, UniProt P30878, D59A)", "T3 construct": "Cys scanning mutagenesis for the full-length MelBSt; His10 (C); made in house; host or cells: E. coli DW2", "T3 sequence (P30878 whole entry D59A)": "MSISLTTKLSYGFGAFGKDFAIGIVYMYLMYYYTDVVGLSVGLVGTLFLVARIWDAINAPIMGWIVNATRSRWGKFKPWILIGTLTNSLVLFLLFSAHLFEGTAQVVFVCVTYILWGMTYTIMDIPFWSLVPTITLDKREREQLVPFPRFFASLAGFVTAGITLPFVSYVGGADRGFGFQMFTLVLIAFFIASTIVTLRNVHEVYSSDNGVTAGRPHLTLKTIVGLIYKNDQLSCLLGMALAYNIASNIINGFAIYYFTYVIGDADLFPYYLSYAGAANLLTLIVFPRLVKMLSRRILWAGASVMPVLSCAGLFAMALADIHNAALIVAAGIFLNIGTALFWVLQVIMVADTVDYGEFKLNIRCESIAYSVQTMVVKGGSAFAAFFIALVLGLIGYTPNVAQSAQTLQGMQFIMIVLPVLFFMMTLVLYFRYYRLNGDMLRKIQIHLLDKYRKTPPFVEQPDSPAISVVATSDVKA", "assay": "Trp→dansyl galactoside (D2G) FRET time trace (D59A)", "assay_type": "binding", "details": "no Na+ or Li+ stimulation", "experimental": "Fig. 1 Functional characterizations. a [^3H] Melibiose transport time course with intact cells. E. coli DW2 strain (melB^−, lacZ^−Y^−) expressed with the WT, D59C, or D59A MelBSt mutants were subjected to [^3H]melibiose active transport assay at 0.4 mM and 10 mCi/mmol in the presence of 20 mM or 100 mM NaCl or LiCl by a fast filtration method. Inset, melibiose fermentation assay. Transformants with DW2 strain were plated on MacConkey agar plates containing 30 mM melibiose as the sole carbohydrate source and pH sensor neutral red, and incubated at 37 °C for 16–18 h before imaging. Number of tests = 3, from different batch of cells or duplicate measurements from same batch of sample. b Ligand binding by Trp→dansyl galactoside (D^2G) FRET assay. Purified proteins at 1 μM concentration in 20 mM Tris-HCl, pH 7.5, 100 mM CholCl, 10% glycerol, and 0.03% UDM were subjected to steady-state fluorescence measurements as described in Methods. […]\nSteady-state fluorescence measurements were performed with an AMINCO-Bowman series 2 spectrometer with purified MelBSt at 1 μM in 20 mM Tris-HCl, pH 7.5, 100 mM CholCl, 10% glycerol, 0.03% UDM. Using an excitation wavelength at 290 nm, the emission intensity was recorded at 490 nm. […]"}, "WT MelBSt [3]": {"target": "T1, WT MelBSt", "assay": "biochemical", "assay_type": "binding", "experimental": "(§6) All ITC ligand-binding assays were performed with the TA Instruments (Nano-ITC device) at 25 °C. In a typical experiment, the titrand (MelBSt) in the ITC sample cell was titrated with the specified titrant (placed in the Syringe) by an incremental injection of 2-µL aliquots at an interval of 300 s at a constant stirring rate of 250 r.p.m. All samples were degassed using a TA Instruments Degassing Station (model 6326) for 15 min prior to the titration. Data processing was performed with the NanoAnalyze (version 3.6.0 software) provided with the ITC equipment. The normalized heat changes were subtracted from the heat of dilution elicited by last few injections, where no further binding occurred; the corrected heat changes were plotted against the molar ratio of titrant versus titrand. The values for association constant (Ka) value were determined by fitting the data with a one-site independent-binding model. At most cases, the binding stoichiometry (N) number was fixed to 1 since it is a known parameter, which can restrain the data fitting and achieve more accurate results. The dissociation constant Kd = 1/Ka.\n(§7) Supplementary Figure 1. ITC measurements. ITC measurements were performed at 25 °C as described in Methods. (a) Binding thermography. For all tests, ligands and proteins are buffer- […]\n(§8) (1 picture or pasted object on this page, not shown here) […]\n(§9) matched. For melibiose binding measurements, a solution of 80 mM or 10 mM in the absence or presence of NaCl at 100 mM, was injected into the ITC sample cell containing the WT MelBSt at 80 μM without or with 100 mM NaCl, respectively. With the D59C mutant, […] was used. For α-NPG binding measurements, 0.5 mM or 0.4 mM solution was used to titrate the WT or D59C mutant at 50 μM in the absence or presence or 100 mM NaCl, respectively. For the Na+ or Li+ binding measurements, 5 mM or 2 mM solution was used to titrate WT MelBSt at 80 μM without or with 50 mM melibiose, respectively; 40 mM solutions was used to titrate the D59C mutant. (b) binding isotherm. Curve fit was carried out with a one-site independent-binding model included in the NanoAnalyze software (version 3.6.0)."}, "D59C MelBSt [4]": {"target": "T2, D59C MelBSt", "assay": "biochemical", "assay_type": "binding", "details": "even with increased concentration or in the presence of melibiose; Kd not determinable", "experimental": "as §6, §7, §8, §9"}, "WT MelBSt [5]": {"target": "T1, WT MelBSt", "details": "ITC 25 °C, data from publication or averaged with more tests, read-out: Kd, Na+ binding, cited from earlier work"}},
  "note": "Where “and” joins values, the source holds several entries; their conditions need not be identical. Equal entries are not always repeated. Where two headings read alike, the source gives them in different places.",
  "data": [
    {"smiles": "CCCCCCCCCCCCO[C@@H]1O[C@H](CO)[C@@H](O[C@H]2O[C@H](CO)[C@@H](O)[C@H](O)[C@H]2O)[C@H](O)[C@H]1O", "note": "[DDM, dodecyl-β-D-maltopyranoside]", "values": [
      {"measurement": "effect on Trp→D2G FRET of D2G-bound protein (displacement)", "setting": "WT MelBSt [1]", "value": "only showed a dilution effect similar to the addition of water"}
    ]},
    {"smiles": "CCCCCCCCCCCCOC1OC(COC2OC(CO)C(O)C(O)C2O)C(O)C(O)C1O", "note": "[DDMB, dodecyl-β-D-melibioside]", "values": [
      {"measurement": "IC50", "setting": "WT MelBSt [1]; Apo", "value": "26.1 ± 5.46", "unit": "µM"},
      {"measurement": "IC50", "setting": "WT MelBSt [1]; Na+ (100 mM)", "value": "4.79 ± 0.28", "unit": "µM"},
      {"measurement": "effect on Trp→D2G FRET of D2G-bound protein (displacement)", "setting": "WT MelBSt [1]", "value": "large decrease in fluorescent intensity"},
      {"measurement": "decrease of IC50 in the presence of Na+", "setting": "WT MelBSt [1]; apo vs Na+", "value": 5, "unit": "fold"},
      {"measurement": "IC50", "setting": "D59C MelBSt [2]; Apo", "value": "20 µM and 20.2 µM"},
      {"measurement": "IC50", "setting": "D59C MelBSt [2]; Na+ (100 mM)", "value": "23.6 ± 3.9", "unit": "µM"},
      {"measurement": "ligand binding by Trp→D2G FRET", "setting": "D59A MelBSt", "value": "binds"}
    ]},
    {"smiles": "[Li+]", "note": "[Li^+]", "values": [
      {"measurement": "Kd", "setting": "WT MelBSt [3]; Apo, ITC 25 °C, read-out: Kd, Li+ binding", "value": "400 ± 100", "unit": "µM"},
      {"measurement": "decrease of Kd in the presence of melibiose", "setting": "WT MelBSt [3]; Li+ binding, apo vs melibiose", "value": 6, "unit": "fold"},
      {"measurement": "Kd", "setting": "WT MelBSt [3]; Melibiose (50 mM), ITC 25 °C, read-out: Kd, Li+ binding", "value": "70 ± 10", "unit": "µM"},
      {"measurement": "heat changes derived from cation binding (ITC)", "setting": "D59C MelBSt [4]", "value": "quite small"}
    ]},
    {"smiles": "[Na+]", "note": "[Na^+]", "values": [
      {"measurement": "Kd", "setting": "WT MelBSt [5]; Apo", "value": "680 ± 30", "unit": "µM"},
      {"measurement": "Kd", "setting": "WT MelBSt [5]; Melibiose (50 mM)", "value": "80 ± 10", "unit": "µM"},
      {"measurement": "cooperativity, change of Kd with melibiose", "setting": "WT MelBSt [3]; Na+ binding, apo vs melibiose", "value": 8, "unit": "fold"},
      {"measurement": "Kd", "setting": "WT MelBSt [3]; apo MelB, rebuttal letter, read-out: affinity of apo MelB", "value": 500, "unit": "µM"},
      {"measurement": "heat changes derived from cation binding (ITC)", "setting": "D59C MelBSt [4]", "value": "quite small"}
    ]},
    {"smiles": "CCCCCCCCCCCO[C@@H]1O[C@H](CO)[C@@H](O[C@H]2O[C@H](CO)[C@@H](O)[C@H](O)[C@H]2O)[C@H](O)[C@H]1O", "note": "[UDM, undecyl-β-D-maltopyranoside]", "values": [
      {"measurement": "effect on Trp→D2G FRET of D2G-bound protein (displacement)", "setting": "WT MelBSt [1]", "value": "only showed a dilution effect similar to the addition of water"}
    ]}
  ]
}
